# Reference: publication PMC11062922 (Nature Chemical Biology, 2023)
# Where two headings read alike, the source gives them in different places.
# Legend:
# ABL1 = ABL1 (Homo sapiens, UniProt P00519); experiment: Kinobeads two-dose competition binding: ABL1; settings: sheet CATDS matrix 2; Gene Name ABL1
# CHECK1 = molecular target: T1, CHECK1 (Homo sapiens, UniProt O14757); experiment: Kinobeads two-dose competition binding: CHECK1; settings: for CATDS: target CHEK1
# T1 construct: endogenous in cells
# T1 sequence (O14757 1-476): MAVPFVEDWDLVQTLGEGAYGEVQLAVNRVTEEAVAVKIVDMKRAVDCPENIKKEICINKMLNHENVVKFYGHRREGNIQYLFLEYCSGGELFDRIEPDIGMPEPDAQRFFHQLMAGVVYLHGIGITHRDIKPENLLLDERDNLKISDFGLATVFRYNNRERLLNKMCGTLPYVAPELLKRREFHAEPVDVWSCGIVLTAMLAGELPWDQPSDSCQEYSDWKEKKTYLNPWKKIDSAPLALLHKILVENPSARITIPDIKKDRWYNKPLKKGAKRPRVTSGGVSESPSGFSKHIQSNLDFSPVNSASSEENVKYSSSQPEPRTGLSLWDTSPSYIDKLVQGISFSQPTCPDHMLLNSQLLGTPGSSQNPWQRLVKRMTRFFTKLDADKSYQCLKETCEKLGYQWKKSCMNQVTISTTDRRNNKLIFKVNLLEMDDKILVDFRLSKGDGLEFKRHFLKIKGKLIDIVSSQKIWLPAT
# Source text: (§1) Briefly, Kinobeads comprise seven broad-spectrum small molecule kinase inhibitors immobilized on Sepharose beads. […]. Compounds of interest are set to compete for target protein binding with Kinobeads in the lysate and the amount of a given protein bound to Kinobeads in the presence of a compound can be quantified relative to a dimethylsulfoxide (DMSO) vehicle control by label-free mass spectrometry. This assay measures the physical interaction of a compound with thousands of endogenous proteins in parallel and, when systematically increasing the concentration of competitor, enables the calculation of an apparent interaction constant ( Kdapp ) for each compound and protein.
# (§2) Kinobeads pulldown experiments were performed as described previously[13],[14],[17] with minor modification. […] The protein concentration was adjusted to 5 mg ml^−1. Kinase inhibitors were spiked into 0.5 ml of cell lysate at final concentrations of 100 and 1,000 nM (or DMSO, 0.3, 1, 3, 10, 30, 100, 300 and 1,000 nM for full dose experiments). […] Lysates were incubated for 45 min at 4 °C. Subsequently, lysates were incubated with Kinobeads ε (17.5 µl of settled beads) for 30 min at 4 °C. To assess the degree of protein depletion from the lysates by Kinobeads, the flow through of the DMSO control was recovered for a pulldown of pulldown experiment where the lysate was incubated a second time with fresh Kinobeads. Beads were washed in three steps with buffer containing 0.4%, 0.2% and no IGEPAL. Bound proteins were reduced with 50 mM DTT in 8 M Urea, 40 mM Tris-HCl pH 7.4 for 30 min at room temperature. After alkylation with 55 mM chloroacetamide, the urea concentration was reduced to 1–2 M and proteins were digested with trypsin. Acidified peptides were desalted and concentrated using SepPak tC18 µEluation plates (Waters). Samples were frozen, dried by vacuum centrifugation and stored at −20 °C.
# (§3) Each kinase inhibitor was processed together with all DMSO controls of the same plate. Additionally, each search was supplemented with five high quality DMSO controls for consistent peptide identification and protein grouping. The resultant file (proteinGroups.txt) was used for subsequent filtering, normalization, data visualization and target annotation that was automatically performed by a data processing pipeline built in house that used R (including the ‘drc’ and ‘heatmap’ packages). First, reverse hits, potential contaminants and not quantified proteins in the DMSO control samples were discarded. Protein raw and label-free quantification intensities were normalized to the median DMSO control intensity to obtain relative residual binding intensities for each protein group at every inhibitor concentration and standard deviations of the DMSO control intensity were calculated. IC50 values were estimated based on the following equation IC50=I×100−inhibition/inhibition where [I] is the inhibitor concentration that was used for IC50 calculation and ‘inhibition’ the relative residual binding intensity. […]. Estimated Kdapp values were then calculated by multiplying the estimated IC50 values with a protein-dependent correction factor that was limited to a maximum value of one. The correction factor accounts for the depletion of a target protein from the lysate by Kinobeads. The depletion can be measured by the ratio of the amount of protein captured in two consecutive pulldowns of the same DMSO control lysate. In this study, correction factors were determined in separate experiments using the same lysate mixture and the same bead batch. Correction factors were set to the median of all correction factors. Targets of kinase inhibitors were annotated using the previously published random forest classifier. A training data set was annotated manually. […]
# ATM = molecular target: T2, ATM (Homo sapiens, UniProt Q13315); experiment: Kinobeads two-dose competition binding: ATM; settings: for CATDS: target ATM
# T2 construct: endogenous in cells
# Source text: as §1, §2, §3
# ACOX1 = molecular target: T3, ACOX1 (Homo sapiens, UniProt Q15067); experiment: Kinobeads two-dose competition binding: ACOX1;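 further: competition of compounds with immobilized broad-spectrum kinase inhibitor beads in cell lysate at 100 and 1,000 nM, 45 min at 4 °C, bead-bound protein quantified by label-free MS versus DMSO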
# T3 construct: endogenous in cells
# T3 sequence (Q15067 1-660): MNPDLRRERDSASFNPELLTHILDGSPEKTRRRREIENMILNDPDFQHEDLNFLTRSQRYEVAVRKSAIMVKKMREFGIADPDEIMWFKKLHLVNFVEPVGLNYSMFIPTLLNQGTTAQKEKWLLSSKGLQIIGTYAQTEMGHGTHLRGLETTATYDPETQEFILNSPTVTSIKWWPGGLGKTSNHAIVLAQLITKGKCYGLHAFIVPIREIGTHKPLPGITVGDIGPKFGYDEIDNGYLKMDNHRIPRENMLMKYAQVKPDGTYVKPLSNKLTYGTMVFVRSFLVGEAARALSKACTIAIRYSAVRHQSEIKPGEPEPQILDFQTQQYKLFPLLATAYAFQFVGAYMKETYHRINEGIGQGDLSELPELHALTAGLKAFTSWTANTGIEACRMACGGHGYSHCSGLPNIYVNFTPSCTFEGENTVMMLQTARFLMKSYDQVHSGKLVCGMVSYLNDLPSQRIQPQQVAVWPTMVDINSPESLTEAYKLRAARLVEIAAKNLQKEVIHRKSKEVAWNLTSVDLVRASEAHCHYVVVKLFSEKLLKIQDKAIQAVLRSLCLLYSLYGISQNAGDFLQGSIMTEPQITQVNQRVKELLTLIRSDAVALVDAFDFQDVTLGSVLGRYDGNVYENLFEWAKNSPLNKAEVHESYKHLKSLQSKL
# GSK3B = molecular target: T4, GSK3B (Homo sapiens, UniProt P49841); experiment: Kinobeads two-dose competition binding: GSK3B; settings: for CATDS: target GSK3B
# T4 construct: endogenous in cells
# [1] = sheet CATDS matrix 2, Gene Name ACOX1
# T2 sequence (Q13315 whole entry): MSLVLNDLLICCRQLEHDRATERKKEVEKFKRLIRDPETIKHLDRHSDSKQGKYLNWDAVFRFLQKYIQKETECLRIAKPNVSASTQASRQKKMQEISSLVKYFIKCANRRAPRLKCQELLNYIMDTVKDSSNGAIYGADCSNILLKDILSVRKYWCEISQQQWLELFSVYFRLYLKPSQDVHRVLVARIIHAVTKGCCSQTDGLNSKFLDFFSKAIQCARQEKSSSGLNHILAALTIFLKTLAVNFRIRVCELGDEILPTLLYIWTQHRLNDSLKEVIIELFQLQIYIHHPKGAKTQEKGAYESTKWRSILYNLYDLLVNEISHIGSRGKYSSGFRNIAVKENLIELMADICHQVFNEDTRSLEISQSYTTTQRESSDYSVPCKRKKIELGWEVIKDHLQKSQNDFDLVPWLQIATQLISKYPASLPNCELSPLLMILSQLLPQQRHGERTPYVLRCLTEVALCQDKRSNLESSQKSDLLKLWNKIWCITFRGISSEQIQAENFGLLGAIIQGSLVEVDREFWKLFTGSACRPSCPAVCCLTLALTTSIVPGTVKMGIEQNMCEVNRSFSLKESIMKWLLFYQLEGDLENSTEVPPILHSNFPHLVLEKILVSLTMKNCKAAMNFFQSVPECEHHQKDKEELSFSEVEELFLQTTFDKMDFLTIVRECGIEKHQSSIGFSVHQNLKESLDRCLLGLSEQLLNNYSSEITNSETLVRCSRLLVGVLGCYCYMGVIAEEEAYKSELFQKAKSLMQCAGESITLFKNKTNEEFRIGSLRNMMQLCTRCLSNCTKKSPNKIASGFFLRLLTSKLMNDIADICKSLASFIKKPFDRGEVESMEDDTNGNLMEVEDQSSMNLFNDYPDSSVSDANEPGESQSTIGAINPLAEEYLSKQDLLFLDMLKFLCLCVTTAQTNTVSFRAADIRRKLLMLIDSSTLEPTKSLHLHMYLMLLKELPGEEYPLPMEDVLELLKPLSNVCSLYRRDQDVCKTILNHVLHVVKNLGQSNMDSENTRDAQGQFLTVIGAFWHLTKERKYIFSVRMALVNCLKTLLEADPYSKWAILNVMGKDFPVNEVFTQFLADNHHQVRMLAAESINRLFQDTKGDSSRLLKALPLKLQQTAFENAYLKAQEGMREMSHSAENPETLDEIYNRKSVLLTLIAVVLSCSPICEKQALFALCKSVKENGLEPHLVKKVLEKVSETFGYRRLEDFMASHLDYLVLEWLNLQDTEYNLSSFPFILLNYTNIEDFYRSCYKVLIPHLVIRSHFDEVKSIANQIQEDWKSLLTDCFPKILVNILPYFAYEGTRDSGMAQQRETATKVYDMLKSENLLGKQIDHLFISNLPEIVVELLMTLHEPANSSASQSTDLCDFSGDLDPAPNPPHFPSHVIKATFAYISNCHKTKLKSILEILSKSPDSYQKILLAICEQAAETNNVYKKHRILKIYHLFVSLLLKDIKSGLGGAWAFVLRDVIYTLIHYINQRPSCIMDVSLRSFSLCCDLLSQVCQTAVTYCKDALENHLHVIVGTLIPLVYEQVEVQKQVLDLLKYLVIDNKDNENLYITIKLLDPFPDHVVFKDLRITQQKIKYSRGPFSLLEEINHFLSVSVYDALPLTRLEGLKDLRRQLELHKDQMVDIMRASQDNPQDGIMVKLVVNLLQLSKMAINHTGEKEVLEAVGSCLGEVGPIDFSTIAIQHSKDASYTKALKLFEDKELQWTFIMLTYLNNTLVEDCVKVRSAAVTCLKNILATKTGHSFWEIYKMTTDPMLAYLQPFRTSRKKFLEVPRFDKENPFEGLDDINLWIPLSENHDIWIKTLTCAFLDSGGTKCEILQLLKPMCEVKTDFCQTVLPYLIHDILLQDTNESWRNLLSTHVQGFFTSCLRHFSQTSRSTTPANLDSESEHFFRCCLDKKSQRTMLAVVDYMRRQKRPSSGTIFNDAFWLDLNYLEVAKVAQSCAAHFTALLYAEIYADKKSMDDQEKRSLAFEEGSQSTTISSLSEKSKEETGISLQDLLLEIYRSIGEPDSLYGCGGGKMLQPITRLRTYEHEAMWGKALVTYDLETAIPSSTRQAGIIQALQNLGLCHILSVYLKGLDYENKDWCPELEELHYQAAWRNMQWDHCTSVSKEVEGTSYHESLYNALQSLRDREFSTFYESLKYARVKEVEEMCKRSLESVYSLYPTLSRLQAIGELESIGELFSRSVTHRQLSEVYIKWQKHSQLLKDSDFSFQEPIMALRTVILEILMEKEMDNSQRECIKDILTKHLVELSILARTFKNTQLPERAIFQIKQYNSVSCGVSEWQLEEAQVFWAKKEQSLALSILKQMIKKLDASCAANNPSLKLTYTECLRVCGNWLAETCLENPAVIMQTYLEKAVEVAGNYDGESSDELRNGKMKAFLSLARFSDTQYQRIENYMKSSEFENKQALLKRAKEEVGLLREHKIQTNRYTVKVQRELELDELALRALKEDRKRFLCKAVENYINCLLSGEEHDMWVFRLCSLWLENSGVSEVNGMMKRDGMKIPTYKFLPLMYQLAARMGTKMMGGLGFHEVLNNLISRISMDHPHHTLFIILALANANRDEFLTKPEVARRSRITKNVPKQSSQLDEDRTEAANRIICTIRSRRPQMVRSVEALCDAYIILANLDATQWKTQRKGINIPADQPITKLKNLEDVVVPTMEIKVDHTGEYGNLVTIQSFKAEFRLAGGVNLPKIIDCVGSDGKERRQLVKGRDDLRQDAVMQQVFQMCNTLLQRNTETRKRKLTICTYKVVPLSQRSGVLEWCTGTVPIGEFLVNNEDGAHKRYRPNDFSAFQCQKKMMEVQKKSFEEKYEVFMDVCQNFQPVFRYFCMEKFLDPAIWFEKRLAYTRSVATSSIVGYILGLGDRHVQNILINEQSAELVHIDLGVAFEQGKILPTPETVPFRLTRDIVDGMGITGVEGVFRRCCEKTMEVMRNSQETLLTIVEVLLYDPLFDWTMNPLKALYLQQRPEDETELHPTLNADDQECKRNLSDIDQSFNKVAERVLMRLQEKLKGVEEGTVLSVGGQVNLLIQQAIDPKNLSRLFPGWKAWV
# ABL1, sequence (P00519 28-1130 limits assumed): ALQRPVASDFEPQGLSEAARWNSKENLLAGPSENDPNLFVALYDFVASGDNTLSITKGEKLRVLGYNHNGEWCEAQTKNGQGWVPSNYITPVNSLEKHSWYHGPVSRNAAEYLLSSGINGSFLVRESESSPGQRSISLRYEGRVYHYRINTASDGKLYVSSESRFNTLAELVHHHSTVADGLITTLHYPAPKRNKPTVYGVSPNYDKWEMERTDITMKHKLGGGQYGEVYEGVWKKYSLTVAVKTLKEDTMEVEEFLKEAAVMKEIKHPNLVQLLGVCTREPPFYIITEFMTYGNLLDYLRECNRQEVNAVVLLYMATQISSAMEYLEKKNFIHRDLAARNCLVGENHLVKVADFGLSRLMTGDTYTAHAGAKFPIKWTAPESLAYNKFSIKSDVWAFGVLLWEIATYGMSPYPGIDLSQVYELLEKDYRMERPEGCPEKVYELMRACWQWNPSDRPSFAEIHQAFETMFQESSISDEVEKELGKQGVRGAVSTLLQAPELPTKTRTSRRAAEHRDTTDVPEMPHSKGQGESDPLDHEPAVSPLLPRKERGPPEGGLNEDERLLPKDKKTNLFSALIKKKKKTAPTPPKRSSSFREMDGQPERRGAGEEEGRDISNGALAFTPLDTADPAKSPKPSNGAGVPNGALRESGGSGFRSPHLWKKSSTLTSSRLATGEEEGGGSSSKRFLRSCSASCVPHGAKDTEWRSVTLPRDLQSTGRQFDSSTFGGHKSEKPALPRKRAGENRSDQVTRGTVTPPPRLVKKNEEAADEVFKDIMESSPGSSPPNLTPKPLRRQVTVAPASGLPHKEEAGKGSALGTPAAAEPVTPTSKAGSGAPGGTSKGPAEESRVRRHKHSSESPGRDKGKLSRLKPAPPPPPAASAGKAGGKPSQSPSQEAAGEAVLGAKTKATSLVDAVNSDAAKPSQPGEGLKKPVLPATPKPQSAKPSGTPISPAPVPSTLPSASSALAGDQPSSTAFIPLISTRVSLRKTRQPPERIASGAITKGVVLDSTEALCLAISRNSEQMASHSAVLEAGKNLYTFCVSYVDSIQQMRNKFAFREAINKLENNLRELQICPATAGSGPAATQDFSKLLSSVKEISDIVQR
# T4 sequence (P49841 whole entry): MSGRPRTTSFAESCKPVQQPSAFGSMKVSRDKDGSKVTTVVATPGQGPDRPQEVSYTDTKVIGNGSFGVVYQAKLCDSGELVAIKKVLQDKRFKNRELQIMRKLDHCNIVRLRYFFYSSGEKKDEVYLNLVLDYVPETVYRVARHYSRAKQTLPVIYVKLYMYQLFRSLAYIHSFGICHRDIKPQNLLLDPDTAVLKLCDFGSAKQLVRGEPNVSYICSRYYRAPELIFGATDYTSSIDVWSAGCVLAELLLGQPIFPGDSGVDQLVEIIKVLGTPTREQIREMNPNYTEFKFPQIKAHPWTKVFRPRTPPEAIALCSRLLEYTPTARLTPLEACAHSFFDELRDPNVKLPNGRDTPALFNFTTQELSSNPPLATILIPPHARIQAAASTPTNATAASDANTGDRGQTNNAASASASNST
"potency estimated from few doses (GSK3B; Kinobeads two-dose, Drugmatrix - all 2, read-out: apparent Kd GSK3B)","potency estimated from few doses (ATM; Kinobeads two-dose, Drugmatrix - all 2, read-out: apparent Kd ATM)",SMILES,CATDS (ABL1),CATDS (CHECK1),CATDS (ATM),CATDS (ACOX1; [1]),CATDS (ACOX1; target ACOX1),CATDS (GSK3B),"potency estimated from few doses (GSK3B; read-out: Lestaurtinib Drugmatrix value, Gene Name GSK3B)","potency estimated from few doses (CHECK1; read-out: Lestaurtinib Drugmatrix value, Gene Name CHEK1)"
,,CCN1CCN(Cc2ccc(Nc3ncc(F)c(-c4cc(F)c5nc(C)n(C(C)C)c5c4)n3)nc2)CC1 [Abemaciclib],0,0,0,0,0,,,
,,CN(C)C/C=C/C(=O)Nc1cc2c(Nc3ccc(F)c(Cl)c3)ncnc2cc1O[C@H]1CCOC1 [Afatinib],0,0,0,,,0,,
,,C[C@]12O[C@H](C[C@]1(O)CO)n1c3ccccc3c3c4c(c5c6ccccc6n2c5c31)CNC4=O [Lestaurtinib],,,,,,,295 nM,98 nM
,,C#Cc1cccc(Nc2ncnc3cc(OC)c(OC4CCN(C)CC4)cc23)c1 [BI00007366],0,,,0,,,,
783 nM,112 nM,CC(C)N1CC(=O)N(C)c2cnc(Nc3cccc(S(=O)(=O)CCN4CCOCC4)c3)nc21 [BI00009348],0,,,0,,,,
,,CCc1cc2c(cc1N1CCC(N3CCOCC3)CC1)C(C)(C)c1[nH]c3cc(C#N)ccc3c1C2=O [Alectinib],0,0,0,0,0,0,,
,,Nc1ncnc2[nH]c(-c3ccccc3)nc12 [AH5015_KCGS],0,0,0,0,0,0.07826,,
,,N#CC1(c2ccc(NC(=O)c3cccnc3NCc3ccncc3)cc2)CCCC1 [Apatinib],0,0,0,0,0,0,,
